Reference: patent US10464977B2 (University of Maryland, Baltimore, priority 2016, dated 2019)
Residues, ends and D or L forms follow the SMILES beside them.

Legend:
[1] = target: Sap2 (Candida albicans, UniProt P0DJ06); assay: in vitro; details: 6.25 μg mL^−1 Sap2, 150 μg mL^−1 peptide, 2 h, 37° C.
Protocol: (§1) Experiments were done in 1 mM NaPB. The mixtures were incubated at 37° C. for 2 h, and NaPB with no Sap was used as a control. After the incubation, the samples were mixed with tricine sample buffer (without Coomassie Blue G-250, except in control samples) containing β-mercaptoethanol and boiled for 5 min at 100° C. to inactivate the proteases. The degraded and non-degraded peptides were separated by gel electrophoresis in 10-20% Tris-tricine gels (Bio-Rad), and the gels were then fixed in a 10% acetic acid/40% methanol/50% water mixture for 30 min. The fixed gels were stained with Bio-Safe Coomassie stain (Bio-Rad) for 1 h and washed with fresh water three times, once overnight and then twice for at least 2 h each time. The gels were imaged on a Chemidoc imager (Bio-Rad), and densitometric analysis was done with Image Lab software (Bio-Rad). […] Three replicates of the assay were done.
(§2) To measure the antifungal activity of the peptides following degradation by the Saps, the antifungal activity assay was performed as described above, except the peptides were first exposed to Saps. The peptide fragments were prepared by incubating each peptide (150 μg mL^−1) with 6.25 μg mL^−1 Sap9 or 18 μg mL^−1 Sap2 for 2 h at 37° C. The enzymes were then inactivated by heating at 100° C. for 5 min. As controls, each peptide was also incubated with only NaPB buffer. Samples were then stored at −20° C. until use in the antifungal activity assay.
(§3) The intact peptide was then separated from the degradation products using gel electrophoresis and quantified the level of degradation using densitometric analysis of Coomassie-stained gels.
(§4) To amplify differences in antifungal activity due to degradation by the Saps, the concentrations of the Saps was increased by at least two-fold compared to the concentrations used for the gel electrophoresis data in FIGS. 1A-1D (to 6.25 μg mL^−1 for Sap9 and 18 μg mL^−1 for Sap2).

[2] = target: Sap9 (Candida albicans, UniProt Q59SU1); assay: in vitro; details: 2 h, 37° C.; for degradation by Sap9 (in words): 3.13 μg mL^−1 Sap9, 150 μg mL^−1 peptide
Sap9, sequence (Q59SU1 18-520): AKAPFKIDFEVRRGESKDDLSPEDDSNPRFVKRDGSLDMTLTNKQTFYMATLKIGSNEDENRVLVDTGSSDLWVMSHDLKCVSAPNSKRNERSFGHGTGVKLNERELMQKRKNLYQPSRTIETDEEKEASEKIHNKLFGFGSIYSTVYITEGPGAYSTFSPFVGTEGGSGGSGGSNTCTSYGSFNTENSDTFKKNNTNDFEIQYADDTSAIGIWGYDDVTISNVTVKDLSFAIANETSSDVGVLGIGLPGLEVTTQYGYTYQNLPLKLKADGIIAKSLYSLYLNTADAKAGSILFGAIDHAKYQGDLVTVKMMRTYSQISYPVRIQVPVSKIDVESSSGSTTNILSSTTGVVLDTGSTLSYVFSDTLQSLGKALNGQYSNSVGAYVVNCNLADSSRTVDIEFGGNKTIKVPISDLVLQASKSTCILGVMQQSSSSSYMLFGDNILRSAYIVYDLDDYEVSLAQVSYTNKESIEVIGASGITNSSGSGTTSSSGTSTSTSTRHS
Protocol: as §1, §2, §3, §4

Sap2, sequence (P0DJ06 57-398): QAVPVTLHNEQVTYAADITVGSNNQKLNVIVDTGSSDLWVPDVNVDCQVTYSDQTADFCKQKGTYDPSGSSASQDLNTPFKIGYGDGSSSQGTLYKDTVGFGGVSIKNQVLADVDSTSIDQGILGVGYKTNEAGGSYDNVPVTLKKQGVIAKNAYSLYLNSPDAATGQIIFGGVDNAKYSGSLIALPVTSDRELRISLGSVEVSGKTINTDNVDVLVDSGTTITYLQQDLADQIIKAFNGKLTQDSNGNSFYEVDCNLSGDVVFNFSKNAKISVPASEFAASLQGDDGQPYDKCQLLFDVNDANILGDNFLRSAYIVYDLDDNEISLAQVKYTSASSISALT

SMILES: CC(C)C[C@H](NC(=O)[C@H](Cc1c[nH]cn1)NC(=O)[C@H](Cc1ccccc1)NC(=O)[C@H](CCCCN)NC(=O)[C@H](CCCNC(=N)N)NC(=O)[C@H](CCCCN)NC(=O)[C@H](Cc1ccc(O)cc1)NC(=O)CNC(=O)[C@H](Cc1c[nH]cn1)NC(=O)[C@H](Cc1c[nH]cn1)NC(=O)[C@H](CCCNC(=N)N)NC(=O)[C@H](CCCCN)NC(=O)[C@H](C)NC(=O)[C@H](Cc1c[nH]cn1)NC(=O)[C@H](CO)NC(=O)[C@@H](N)CC(=O)O)C(=O)N[C@@H](CCCCN)C(=O)N[C@@H](Cc1c[nH]cn1)C(=O)N[C@@H](Cc1c[nH]cn1)C(=O)N[C@@H](CO)C(=O)N[C@@H](Cc1c[nH]cn1)C(=O)N[C@@H](CCCNC(=N)N)C(=O)NCC(=O)N[C@@H](Cc1ccc(O)cc1)C(=O)O [Peptide E16L] (H-DSHAKRHHGYKRKFHLKHHSHRGY-OH; N-terminus and C-terminus assumed)
- degradation by Sap2 (in words) [1]: increased compared to Hst-5
- degradation by Sap9 (in words) [2]: increased compared to Hst-5

SMILES: CC(C)C[C@H](NC(=O)[C@H](Cc1ccc(O)cc1)NC(=O)CNC(=O)[C@H](Cc1c[nH]cn1)NC(=O)[C@H](Cc1c[nH]cn1)NC(=O)[C@H](CCCNC(=N)N)NC(=O)[C@H](CCCCN)NC(=O)[C@H](C)NC(=O)[C@H](Cc1c[nH]cn1)NC(=O)[C@H](CO)NC(=O)[C@@H](N)CC(=O)O)C(=O)N[C@@H](CCCNC(=N)N)C(=O)N[C@@H](CCCCN)C(=O)N[C@@H](Cc1ccccc1)C(=O)N[C@@H](Cc1c[nH]cn1)C(=O)N[C@@H](CCC(=O)O)C(=O)N[C@@H](CCCCN)C(=O)N[C@@H](Cc1c[nH]cn1)C(=O)N[C@@H](Cc1c[nH]cn1)C(=O)N[C@@H](CO)C(=O)N[C@@H](Cc1c[nH]cn1)C(=O)N[C@@H](CCCNC(=N)N)C(=O)NCC(=O)N[C@@H](Cc1ccc(O)cc1)C(=O)O [Peptide K11L] (H-DSHAKRHHGYLRKFHEKHHSHRGY-OH; N-terminus and C-terminus assumed)
- degradation by Sap9 (in words) [2]: greater degradation than their arginine-substituted counterparts or parent Hst-5
- degradation at higher Sap9 concentration (in words) ([2]; 6.25 μg mL^−1 Sap9, 150 μg mL^−1 peptide): not intact

SMILES: C[C@H](NC(=O)[C@H](Cc1c[nH]cn1)NC(=O)[C@H](CO)NC(=O)[C@@H](N)CC(=O)O)C(=O)N[C@@H](CCCCN)C(=O)N[C@@H](CCCNC(=N)N)C(=O)N[C@@H](Cc1c[nH]cn1)C(=O)N[C@@H](Cc1c[nH]cn1)C(=O)NCC(=O)N[C@@H](Cc1ccc(O)cc1)C(=O)N[C@@H](CCCNC(=N)N)C(=O)N[C@@H](CCCNC(=N)N)C(=O)N[C@@H](CCCCN)C(=O)N[C@@H](Cc1ccccc1)C(=O)N[C@@H](Cc1c[nH]cn1)C(=O)N[C@@H](CCC(=O)O)C(=O)N[C@@H](CCCNC(=N)N)C(=O)N[C@@H](Cc1c[nH]cn1)C(=O)N[C@@H](Cc1c[nH]cn1)C(=O)N[C@@H](CO)C(=O)N[C@@H](Cc1c[nH]cn1)C(=O)N[C@@H](CCCNC(=N)N)C(=O)NCC(=O)N[C@@H](Cc1ccc(O)cc1)C(=O)O [Peptide K11R-K17R] (H-DSHAKRHHGYRRKFHERHHSHRGY-OH; N-terminus and C-terminus assumed)
- degradation by Sap2 (in words) [1]: no observable degradation
- degradation by Sap9 (in words) [2]: no observable degradation
